Biological target: T1, Human CaV2.2 channels (Homo sapiens, UniProt Q00975)
T1 construct: expressed in transfected cells; also stably expressing Kir2.3)
Assay: Fluorescence assay for CaV2.2 channels using potassium depolarization to induce channel opening (FLIPR, Fluo 4)
Format: cell-based
Conditions: 30 mM KCl assay buffer (inactivated channel state), HEK293 cells; for inhibition at 3 µM: HEK293, 3 μM test compound, read-out: Activity Category: %-Inhib (CaV2.2) @3 μM @30 mM KCl; for Activity Category: %-Inhib (CaV2.2) @3 μM @30 mM KCl: 3 μM test compound
Source text: In the process, the Ca^2+ influx is quantified in the FLIPR assay with the aid of a Ca^2+-sensitive dye (type Fluo-4, Molecular Probes Europe BV, Leiden, the Netherlands) in a fluorescent imaging plate reader (FLIPR 3, Molecular Devices, Sunnyvale, USA), as described hereinafter.
[drawing 69] 2. Assay Descriptions and Biological Data: 2.1 Fluorescence Assay for CaV2.2 Channels Using Potassium Depolarization to Induce Channel Opening
Human CaV2.2 channels were stably expressed in HEK293 cells together with alpha2-delta and beta subunits of voltage gated calcium channels. In addition, an inwardly rectifying potassium channel (Kir2.3) was stably expressed in these cells to augment control of the cell membrane potential by the concentration of extracellular potassium ions. Raise of the extracellular potassium concentration leads to depolarization of the membrane potential and thus regulates the voltage dependent state of CaV2.2 channels. For preparation, cells were seeded in black poly-D-lysine coated 96-well plates (Becton Dickinson, Biocoat 4640) in 100 μL medium [500 mL DMEM/F-12 plus Glutamax (Invitrogen 31331-093) plus 5.5 mL MEM NEAA 100× (Invitrogen 11140-035) plus 50 mL FBS decomplemented (Invitrogen 10270-106) plus 200 μg/mL Geneticin (Invitrogen 10131-027) plus 50 μg/mL Hygromycin B (Invitrogen 10687-010) plus 2 μg/mL Blasticidin (anti-b15b Invivo-Gen) plus 0.2 μg/mL Puromycin (A 11138-03)] at a cell density of 30.000 cells per well. Plates were incubated at 37° C. (5% CO2) for 20 to 23 h. On the day of experiment medium was discarded and cells were loaded with Fluo 4 by addition of 100 μL of basic assay buffer (10 mM HEPES, 1 mM KCl, 149 mM NaCl, 0.8 mM CaCl2, 1.7 mM MgCl2, 10 mM Glucose, 0.1% BSA. pH 7.4) containing 2 μM Fluo 4 (Molecular Probes; F-14201), 0.01% pluronic acid (Molecular Probes; P-6866) and 2.5 mM probenecid (Molecular Probes; P36400). Cells were incubated in the dark at 25° C. for 60 min. Then dye containing buffer was discarded and 100 μL basic (1 mM KCl) or alternative (30 mM KCl) assay buffer was added. The alternative assay buffer contained altered concentrations of KCl (30 mM) and NaCl (120 mM) and was used in order to promote the inactivated channel state. After that 25 μL of basic or alternative assay buffer with or without test compound were added and cells were incubated again in the dark at 25° C. for 15 min. Fluorescence intensity was measured on a FLIPR 3 instrument (Molecular Devices Corp., Sunnyvale, Calif.) with excitation at 480 nm and emission at 535 nm. After continuously reading fluorescence for 30 sec, 50 μL of basic assay buffer containing 210 mM KCl(NaCl omitted) were added for depolarization. Peak fluorescent signal intensity was determined and the amplitude of the peak signal, normalized to base line, was used to measure channel inhibition by test compounds.

T1 sequence (Q00975 whole entry): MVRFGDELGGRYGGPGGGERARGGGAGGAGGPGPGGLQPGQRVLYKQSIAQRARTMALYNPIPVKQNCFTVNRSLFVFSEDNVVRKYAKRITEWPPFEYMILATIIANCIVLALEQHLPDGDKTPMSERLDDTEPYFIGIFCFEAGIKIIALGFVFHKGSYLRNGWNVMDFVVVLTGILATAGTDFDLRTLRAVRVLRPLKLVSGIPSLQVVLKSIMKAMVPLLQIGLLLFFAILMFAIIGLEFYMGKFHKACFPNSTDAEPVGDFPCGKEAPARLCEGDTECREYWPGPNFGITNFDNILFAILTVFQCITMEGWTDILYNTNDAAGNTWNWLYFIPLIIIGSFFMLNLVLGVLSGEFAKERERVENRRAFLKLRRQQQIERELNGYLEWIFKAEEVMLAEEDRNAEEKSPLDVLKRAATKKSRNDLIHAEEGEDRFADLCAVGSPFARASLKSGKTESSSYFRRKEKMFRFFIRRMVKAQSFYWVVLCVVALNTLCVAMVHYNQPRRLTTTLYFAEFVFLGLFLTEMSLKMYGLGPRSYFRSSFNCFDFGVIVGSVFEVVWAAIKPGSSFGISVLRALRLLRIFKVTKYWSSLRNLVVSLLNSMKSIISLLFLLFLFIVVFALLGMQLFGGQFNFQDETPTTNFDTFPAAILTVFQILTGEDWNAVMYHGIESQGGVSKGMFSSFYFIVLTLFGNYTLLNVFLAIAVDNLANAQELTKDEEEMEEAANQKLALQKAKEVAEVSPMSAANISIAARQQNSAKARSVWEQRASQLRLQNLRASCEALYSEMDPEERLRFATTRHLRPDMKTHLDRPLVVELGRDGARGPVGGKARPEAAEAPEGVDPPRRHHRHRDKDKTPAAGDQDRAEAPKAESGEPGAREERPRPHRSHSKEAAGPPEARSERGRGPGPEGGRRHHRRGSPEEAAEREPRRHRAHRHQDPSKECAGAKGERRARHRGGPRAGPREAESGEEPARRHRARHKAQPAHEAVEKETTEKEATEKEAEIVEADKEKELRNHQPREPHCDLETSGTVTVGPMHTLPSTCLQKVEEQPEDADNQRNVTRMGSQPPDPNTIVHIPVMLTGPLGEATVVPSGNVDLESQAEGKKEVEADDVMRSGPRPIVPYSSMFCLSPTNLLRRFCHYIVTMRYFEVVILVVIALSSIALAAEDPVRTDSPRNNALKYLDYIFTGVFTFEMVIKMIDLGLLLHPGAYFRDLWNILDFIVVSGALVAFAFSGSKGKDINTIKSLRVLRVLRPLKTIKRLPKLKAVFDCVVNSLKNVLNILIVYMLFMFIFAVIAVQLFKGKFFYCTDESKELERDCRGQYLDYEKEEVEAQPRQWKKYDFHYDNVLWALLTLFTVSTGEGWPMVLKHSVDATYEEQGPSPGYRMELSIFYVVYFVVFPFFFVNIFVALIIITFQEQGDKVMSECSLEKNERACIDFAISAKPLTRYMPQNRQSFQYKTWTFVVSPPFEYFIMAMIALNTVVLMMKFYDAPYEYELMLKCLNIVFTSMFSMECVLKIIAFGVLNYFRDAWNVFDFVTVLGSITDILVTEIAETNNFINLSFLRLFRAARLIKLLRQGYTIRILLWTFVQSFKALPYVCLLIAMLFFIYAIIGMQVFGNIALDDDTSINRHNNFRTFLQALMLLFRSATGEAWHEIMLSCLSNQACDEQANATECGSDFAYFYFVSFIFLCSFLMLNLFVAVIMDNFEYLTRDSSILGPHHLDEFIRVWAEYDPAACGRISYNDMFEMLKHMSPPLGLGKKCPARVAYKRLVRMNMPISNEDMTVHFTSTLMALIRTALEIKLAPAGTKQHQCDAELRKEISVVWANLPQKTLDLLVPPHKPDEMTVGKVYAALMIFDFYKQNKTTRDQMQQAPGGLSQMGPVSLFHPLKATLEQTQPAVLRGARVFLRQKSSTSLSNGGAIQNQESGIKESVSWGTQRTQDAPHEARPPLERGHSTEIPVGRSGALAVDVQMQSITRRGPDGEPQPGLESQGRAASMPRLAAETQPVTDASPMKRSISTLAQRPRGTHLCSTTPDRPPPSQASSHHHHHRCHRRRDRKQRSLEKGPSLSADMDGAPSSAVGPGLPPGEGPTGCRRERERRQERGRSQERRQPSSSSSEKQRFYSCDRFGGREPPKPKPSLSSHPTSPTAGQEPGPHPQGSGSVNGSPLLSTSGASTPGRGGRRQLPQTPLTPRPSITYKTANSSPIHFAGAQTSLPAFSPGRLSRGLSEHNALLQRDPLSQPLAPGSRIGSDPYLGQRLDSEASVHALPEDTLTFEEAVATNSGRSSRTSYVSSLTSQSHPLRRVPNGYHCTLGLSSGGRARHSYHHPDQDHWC

Structure (SMILES): CC(C)(C(N)=O)c1cc(C2CC(C)(S(=O)(=O)c3cccc(C(F)(F)F)c3)CCO2)[nH]n1 (stereo not drawn) [Example 30 cis-EN2, 2-Methyl-2-[5-[4-methyl-4-[[3-(trifluoromethyl)phenyl]sulfonyl]-tetrahydro-pyran-2-yl]-1H-pyrazol-3-yl]-propionamide]
- inhibition at 3 µM: 40 to 75%

Structure (SMILES): CC(C)(C#N)c1cc(C2CC(C)(S(=O)(=O)c3cccc(C(F)(F)F)c3)CCO2)[nH]n1 (stereo not drawn) [Example 31 cis-EN1, 2-Methyl-2-[5-[4-methyl-4-[[3-(trifluoromethyl)phenyl]sulfonyl]-tetrahydro-pyran-2-yl]-1H-pyrazol-3-yl]-propionitrile]
- inhibition at 3 µM: > 95%

Structure (SMILES): CC1(S(=O)(=O)c2cccc(C(F)(F)F)c2)CCOC(c2cc(OCC(F)F)n[nH]2)C1 (stereo not drawn) [Example 32 cis-EN1, 5-(2,2-Difluoro-ethoxy)-3-[4-methyl-4-[[3-(trifluoromethyl)phenyl]sulfonyl]-tetrahydro-pyran-2-yl]-1H-pyrazole]
- inhibition at 3 µM: > 95%

Structure (SMILES): CC1(S(=O)(=O)c2cccc(C(F)(F)F)c2)CCOC(c2cc(OCC(F)F)n[nH]2)C1 (stereo not drawn) [Example 32 cis-EN2, 5-(2,2-Difluoro-ethoxy)-3-[4-methyl-4-[[3-(trifluoromethyl)phenyl]sulfonyl]-tetrahydro-pyran-2-yl]-1H-pyrazole]
- Activity Category: %-Inhib (CaV2.2) @3 μM @30 mM KCl: B (%-Inhibition >75% up to ≤95%)

Structure (SMILES): COCC(C)(C)c1cc(C2CC(C)(S(=O)(=O)c3cccc(C(F)(F)F)c3)CCO2)[nH]n1 (stereo not drawn) [Example 33 cis-EN1, 3-(2-Methoxy-1,1-dimethyl-ethyl)-5-[4-methyl-4-[[3-(trifluoromethyl)phenyl]sulfonyl]-tetrahydro-pyran-2-yl]-1H-pyrazole]
- inhibition at 3 µM: > 95%

Structure (SMILES): CC(C)(CO)c1cc(C2CC(C)(S(=O)(=O)c3cccc(C(F)(F)F)c3)CCO2)[nH]n1 (stereo not drawn) [Example 34 cis-EN1, 2-Methyl-2-[5-[4-methyl-4-[[3-(trifluoromethyl)phenyl]sulfonyl]-tetrahydro-pyran-2-yl]-1H-pyrazol-3-yl]-propan-1-ol]
- inhibition at 3 µM: 75 to 95%

Structure (SMILES): CC(C)CS(=O)(=O)c1cc(C2CC(C)(S(=O)(=O)c3cccc(C(F)(F)F)c3)CCO2)[nH]n1 (stereo not drawn) [Example 35 cis-EN1, 3-(2-Methyl-propylsulfonyl)-5-[4-methyl-4-[[3-(trifluoromethyl)phenyl]sulfonyl]-tetrahydro-pyran-2-yl]-1H-pyrazole]
- inhibition at 3 µM: 75 to 95%

Structure (SMILES): CC(C)CS(=O)(=O)c1cc(C2CC(C)(S(=O)(=O)c3cccc(C(F)(F)F)c3)CCO2)[nH]n1 (stereo not drawn) [Example 35 cis-EN2, 3-(2-Methyl-propylsulfonyl)-5-[4-methyl-4-[[3-(trifluoromethyl)phenyl]sulfonyl]-tetrahydro-pyran-2-yl]-1H-pyrazole]
- Activity Category: %-Inhib (CaV2.2) @3 μM @30 mM KCl: A (%-Inhibition >95%)

Structure (SMILES): CC(C)(C)CS(=O)(=O)c1cc(C2CC(C)(S(=O)(=O)c3cccc(C(F)(F)F)c3)CCO2)[nH]n1 (stereo not drawn) [Example 36 cis-EN1, 3-(2,2-Dimethyl-propylsulfonyl)-5-[4-methyl-4-[[3-(trifluoromethyl)phenyl]sulfonyl]-tetrahydro-pyran-2-yl]-1H-pyrazole]
- inhibition at 3 µM: 75 to 95%

Structure (SMILES): CC(C)(C)CS(=O)(=O)c1cc(C2CC(C)(S(=O)(=O)c3cccc(C(F)(F)F)c3)CCO2)[nH]n1 (stereo not drawn) [Example 36 cis-EN2, 3-(2,2-Dimethyl-propylsulfonyl)-5-[4-methyl-4-[[3-(trifluoromethyl)phenyl]sulfonyl]-tetrahydro-pyran-2-yl]-1H-pyrazole]
- Activity Category: %-Inhib (CaV2.2) @3 μM @30 mM KCl: A (%-Inhibition >95%)

Structure (SMILES): CC1(S(=O)(=O)c2cccc(C(F)(F)F)c2)CCOC(c2cc(S(C)(=O)=O)n[nH]2)C1 (stereo not drawn) [Example 37 cis-EN1, 5-Methylsulfonyl-3-[4-methyl-4-[[3-(trifluoromethyl)phenyl]sulfonyl]-tetrahydro-pyran-2-yl]-1H-pyrazole]
- Activity Category: %-Inhib (CaV2.2) @3 μM @30 mM KCl (listed as 37 cis-EN1): C (%-Inhibition >40% up to ≤75%)

Structure (SMILES): CC1(S(=O)(=O)c2cccc(C(F)(F)F)c2)CCOC(c2cc(S(C)(=O)=O)n[nH]2)C1 (stereo not drawn) [Example 37 cis-EN2, 5-Methylsulfonyl-3-[4-methyl-4-[[3-(trifluoromethyl)phenyl]sulfonyl]-tetrahydro-pyran-2-yl]-1H-pyrazole]
- Activity Category: %-Inhib (CaV2.2) @3 μM @30 mM KCl (listed as 37 cis-EN2): B (%-Inhibition >75% up to ≤95%)

Structure (SMILES): CC(C)(C#N)c1cc(C2CC(C)(S(=O)(=O)c3cccc(C(F)(F)F)n3)CCO2)[nH]n1 (stereo not drawn) [Example 38 cis-EN1, 2-Methyl-2-[5-[4-methyl-4-[[6-(trifluoromethyl)-pyridin-2-yl]sulfonyl]-tetrahydro-pyran-2-yl]-1H-pyrazol-3-yl]-propionitrile]
- Activity Category: %-Inhib (CaV2.2) @3 μM @30 mM KCl (listed as 38 cis-EN1): C (%-Inhibition >40% up to ≤75%)

Structure (SMILES): CC(C)(C#N)c1cc(C2CC(C)(S(=O)(=O)c3cccc(C(F)(F)F)n3)CCO2)[nH]n1 (stereo not drawn) [Example 38 cis-EN2, 2-Methyl-2-[5-[4-methyl-4-[[6-(trifluoromethyl)-pyridin-2-yl]sulfonyl]-tetrahydro-pyran-2-yl]-1H-pyrazol-3-yl]-propionitrile]
- Activity Category: %-Inhib (CaV2.2) @3 μM @30 mM KCl (listed as 38 cis-EN2): B (%-Inhibition >75% up to ≤95%)

Structure (SMILES): CC1(S(=O)(=O)c2cccc(C(F)(F)F)c2)CCOC(c2cc(S(=O)(=O)C(F)F)n[nH]2)C1 (stereo not drawn) [[cis-EN1] Example 1, 3-(Difluoro-methylsulfonyl)-5-[4-methyl-4-[[3-(trifluoromethyl)phenyl]sulfonyl]-tetrahydro-pyran-2-yl]-1H-pyrazole]
- inhibition at 3 µM: 75 to 95%

Structure (SMILES): CC1(S(=O)(=O)c2cccc(C(F)(F)F)c2)CCOC(c2cc(C(F)F)[nH]n2)C1 (stereo not drawn) [[cis-EN1] Example 12, 5-(Difluoro-methyl)-3-[4-methyl-4-[[3-(trifluoromethyl)phenyl]sulfonyl]-tetrahydro-pyran-2-yl]-1H-pyrazole]
- inhibition at 3 µM: 75 to 95%

Structure (SMILES): CC1(S(=O)(=O)c2cccc(C(F)(F)F)c2)CCOC(c2cc(C(F)F)[nH]n2)C1 (stereo not drawn) [[cis-EN2] Example 12] [5-(Difluoro-methyl)-3-[4-methyl-4-[[3-(trifluoromethyl)phenyl]sulfonyl]-tetrahydro-pyran-2-yl]-1H-pyrazole]
- Activity Category: %-Inhib (CaV2.2) @3 μM @30 mM KCl: A (%-Inhibition >95%)
